Columns and labels:
Test in all cases: NCI 60 cell panel SRB screen
[1] = system: HL-60(TB); assay type: cell-based; conditions: Homo sapiens; for activity at 10 µM: single dose 10 μM, read-out: percent cell growth promotion
[2] = system: SR; assay type: cell-based; conditions: Homo sapiens; for activity at 10 µM: single dose 10 μM, read-out: percent cell growth promotion
[3] = system: HOP-62; assay type: cell-based; conditions: Homo sapiens; for activity at 10 µM: HOP-62, single dose 10 μM, read-out: percent cell growth promotion
[4] = system: NCI-H226; assay type: cell-based; conditions: Homo sapiens; for activity at 10 µM: NCI-H226, single dose 10 μM, read-out: percent cell growth promotion
[5] = system: COLO 205; assay type: cell-based; conditions: Homo sapiens; for activity at 10 µM: COLO 205, single dose 10 μM, read-out: percent cell growth promotion
[6] = system: HCC-2998; assay type: cell-based; conditions: Homo sapiens; for activity at 10 µM: HCC-2998, single dose 10 μM, read-out: percent cell growth promotion
[7] = system: HCT-15; assay type: cell-based; conditions: Homo sapiens; for activity at 10 µM: HCT-15, single dose 10 μM, read-out: percent cell growth promotion
[8] = system: SNB-19; assay type: cell-based; conditions: Homo sapiens; for activity at 10 µM: SNB-19, single dose 10 μM, read-out: percent cell growth promotion
[9] = system: MALME-3M; assay type: cell-based; conditions: Homo sapiens; for activity at 10 µM: read-out: percent cell growth promotion
[10] = system: M14; assay type: cell-based; conditions: Homo sapiens; for activity at 10 µM: M14, read-out: percent cell growth promotion
[11] = system: SK-MEL-28; assay type: cell-based; conditions: Homo sapiens; for activity at 10 µM: SK-MEL-28, read-out: percent cell growth promotion
[12] = system: OVCAR-8; assay type: cell-based; conditions: Homo sapiens; for activity at 10 µM: OVCAR-8, single dose 10 μM, read-out: percent cell growth promotion
[13] = system: 786-0; assay type: cell-based; conditions: Homo sapiens; for activity at 10 µM: 786-0, single dose 10 μM, read-out: percent cell growth promotion
[14] = system: A498; assay type: cell-based; conditions: Homo sapiens; for activity at 10 µM: A498, single dose 10 μM, read-out: percent cell growth promotion
[15] = system: CAKI-1; assay type: cell-based, human; conditions: for activity at 10 µM: CAKI-1, single dose 10 μM, read-out: percent cell growth promotion
[16] = system: RXF 393; assay type: cell-based; conditions: Homo sapiens; for activity at 10 µM: RXF 393, single dose 10 μM, read-out: percent cell growth promotion
[17] = system: PC-3; assay type: cell-based; conditions: Homo sapiens; for activity at 10 µM: PC-3, single dose 10 μM, read-out: percent cell growth promotion
[18] = system: DU-145; assay type: cell-based; conditions: Homo sapiens; for activity at 10 µM: DU-145, single dose 10 μM, read-out: percent cell growth promotion
[19] = system: BT-549; assay type: cell-based; conditions: Homo sapiens; for activity at 10 µM: BT-549, read-out: percent cell growth promotion
[20] = 5 log dose, 48 h, read-out: LC50 (the source's name)

SMILES: O=C(Nc1ccc(Cl)cc1)Nc1ccc(Oc2nnc(Cl)c3ccccc23)cc1 [Compound 13b, 1–(4-Chlorophenyl)-3–(4-(4-chlorophthalazin-1-yloxy)phenyl)urea]
- activity at 10 µM [1]: 67.3%
- activity at 10 µM [2]: 82.8%
- activity at 10 µM [3]: 93.3%
- activity at 10 µM [4]: 81.4%
- activity at 10 µM [5]: 106%
- activity at 10 µM [6]: 115%
- activity at 10 µM [7]: 94.1%
- activity at 10 µM [8]: 103%
- activity at 10 µM ([9]; Malme-3M): 92.3%
- activity at 10 µM [10]: 103%
- activity at 10 µM [11]: 106%
- activity at 10 µM [12]: 86%
- activity at 10 µM [13]: 114%
- activity at 10 µM [14]: 103%
- activity at 10 µM ([15]; Homo sapiens): 99.1%
- activity at 10 µM [16]: 99.7%
- activity at 10 µM [17]: 67.8%
- activity at 10 µM [18]: 86.8%
- activity at 10 µM [19]: 96.8%

SMILES: Cc1nnc(N2CCN(c3ccccc3)CC2)c2ccccc12 [Compound 8g, 1-Methyl-4–(4-phenylpiperazin-1-yl)phthalazine]
- activity at 10 µM [1]: 103%
- activity at 10 µM [2]: 107%
- activity at 10 µM [3]: 97.1%
- activity at 10 µM [4]: 95.2%
- activity at 10 µM [5]: 97.7%
- activity at 10 µM [6]: 109%
- activity at 10 µM [7]: 98.5%
- activity at 10 µM [8]: 105%
- activity at 10 µM ([9]; Malme-3M): 114%
- activity at 10 µM [10]: 94.8%
- activity at 10 µM [11]: 109%
- activity at 10 µM [12]: 97.1%
- activity at 10 µM [13]: 100%
- activity at 10 µM [14]: 71.7%
- activity at 10 µM ([15]; Homo sapiens): 95.3%
- activity at 10 µM [16]: 105%
- activity at 10 µM [17]: 99.4%
- activity at 10 µM [18]: 111%
- activity at 10 µM [19]: 75.5%

SMILES: CCOC(=O)N1CCN(c2nncc3ccccc23)CC1 [Compound 8a, Ethyl 4-(phthalazin-1-yl)piperazine-1-carboxylate]
- activity at 10 µM [1]: 108%
- activity at 10 µM [2]: 102%
- activity at 10 µM [3]: 107%
- activity at 10 µM [4]: 100%
- activity at 10 µM [5]: 109%
- activity at 10 µM [6]: 117%
- activity at 10 µM [7]: 111%
- activity at 10 µM [8]: 103%
- activity at 10 µM ([9]; Malme-3M): 109%
- activity at 10 µM [10]: 110%
- activity at 10 µM [11]: 116%
- activity at 10 µM [12]: 97.7%
- activity at 10 µM [13]: 106%
- activity at 10 µM [14]: 105%
- activity at 10 µM ([15]; Homo sapiens): 96.1%
- activity at 10 µM [16]: 102%
- activity at 10 µM [17]: 92.6%
- activity at 10 µM [18]: 104%
- activity at 10 µM [19]: 112%

SMILES: O=C(Nc1ccc(Cl)cc1)Nc1ccc(Oc2nncc3ccccc23)cc1 [Compound 7b, 1–(4-Chlorophenyl)-3–(4-(phthalazin-1-yloxy)phenyl)urea]
- GI50 ([1]; 5 log dose): 1.08 µM
- IC (TGI) ([1]; 5 log dose): 13.4 µM
- CC50 [1, 20]: > 100 µM
- activity at 10 µM [1]: 3.65%
- GI50 ([2]; 5 log dose): 0.4 µM
- IC (TGI) ([2]; 5 log dose): > 100 µM
- CC50 [2, 20]: > 100 µM
- activity at 10 µM [2]: 2.64%
- GI50 ([3]; HOP-62, 5 log dose): 1.09 µM
- IC (TGI) ([3]; HOP-62, 5 log dose): 4.32 µM
- CC50 ([3]; HOP-62, 5 log dose, 48 h, read-out: LC50 (the source's name)): 47.7 µM
- activity at 10 µM [3]: 26.7%
- GI50 ([4]; NCI-H226, 5 log dose): 0.62 µM
- IC (TGI) ([4]; NCI-H226, 5 log dose): 5.42 µM
- CC50 ([4]; NCI-H226, 5 log dose, 48 h, read-out: LC50 (the source's name)): > 100 µM
- activity at 10 µM [4]: -54.5%
- GI50 ([5]; COLO 205, 5 log dose): 1.18 µM
- IC (TGI) ([5]; COLO 205, 5 log dose): 2.92 µM
- CC50 ([5]; COLO 205, 5 log dose, 48 h, read-out: LC50 (the source's name)): 7.21 µM
- activity at 10 µM [5]: 11.9%
- GI50 ([6]; HCC-2998, 5 log dose): 1.84 µM
- IC (TGI) ([6]; HCC-2998, 5 log dose): 3.48 µM
- LC50 (50% lethal concentration) ([6]; HCC-2998, 5 log dose, 48 h): 6.57 µM
- activity at 10 µM [6]: -42.2%
- GI50 ([7]; HCT-15, 5 log dose): 0.96 µM
- IC (TGI) ([7]; HCT-15, 5 log dose): 3.08 µM
- CC50 ([7]; HCT-15, 5 log dose, 48 h, read-out: LC50 (the source's name)): 9.67 µM
- activity at 10 µM [7]: 2.76%
- GI50 ([8]; SNB-19, 5 log dose): 1.74 µM
- IC (TGI) ([8]; SNB-19, 5 log dose): 4.79 µM
- CC50 ([8]; SNB-19, 5 log dose, 48 h, read-out: LC50 (the source's name)): 58.3 µM
- activity at 10 µM [8]: -76.5%
- GI50 ([9]; Malme-3M): 0.44 µM
- IC (TGI) ([9]; Malme-3M, read-out: TGI): 2.31 µM
- activity at 10 µM ([9]; Malme-3M): 0.78%
- CC50 ([9]; MALME-3M, 5 log dose, 48 h, read-out: LC50 (the source's name)): 9.69 µM
- GI50 ([10]; M14): 1.12 µM
- IC (TGI) ([10]; M14, read-out: TGI): 3.16 µM
- activity at 10 µM [10]: 7.3%
- CC50 ([10]; M14, 5 log dose, 48 h, read-out: LC50 (the source's name)): 8.93 µM
- GI50 ([11]; SK-MEL-28): 0.42 µM
- IC (TGI) ([11]; SK-MEL-28, read-out: TGI): 1.65 µM
- activity at 10 µM [11]: -31.6%
- CC50 ([11]; SK-MEL-28, 5 log dose, 48 h, read-out: LC50 (the source's name)): 5.33 µM
- GI50 ([12]; OVCAR-8, 5 log dose): 1.1 µM
- IC (TGI) ([12]; OVCAR-8, 5 log dose): 13.6 µM
- CC50 ([12]; OVCAR-8, 5 log dose, 48 h, read-out: LC50 (the source's name)): > 100 µM
- activity at 10 µM [12]: 19.4%
- GI50 ([13]; 786-0, 5 log dose): 0.87 µM
- IC (TGI) ([13]; 786-0, 5 log dose): 2.35 µM
- GI50 ([14]; A498, 5 log dose): 1.5 µM
- IC (TGI) ([14]; A498, 5 log dose): 3.06 µM
- CC50 ([14]; A498, 5 log dose, 48 h, read-out: LC50 (the source's name)): 6.26 µM
- activity at 10 µM [14]: 24.5%
- TGI ([15]; CAKI-1, 5 log dose): 8.70 µM
- GI50 ([15]; Homo sapiens, CAKI-1, 5 log dose): 2.72 µM
- CC50 ([15]; Homo sapiens, CAKI-1, 5 log dose, 48 h, read-out: LC50 (the source's name)): 43.9 µM
- activity at 10 µM ([15]; Homo sapiens): 18.7%
- GI50 ([16]; RXF 393, 5 log dose): 0.31 µM
- IC (TGI) ([16]; RXF 393, 5 log dose): 1.05 µM
- CC50 ([16]; RXF 393, 5 log dose, 48 h, read-out: LC50 (the source's name)): 3.74 µM
- activity at 10 µM [16]: -91.2%
- GI50 ([17]; PC-3, 5 log dose): 1.64 µM
- IC (TGI) ([17]; PC-3, 5 log dose): 6.08 µM
- CC50 ([17]; PC-3, 5 log dose, 48 h, read-out: LC50 (the source's name)): 35.6 µM
- activity at 10 µM [17]: -29%
- GI50 ([18]; DU-145, 5 log dose): 0.73 µM
- IC (TGI) ([18]; DU-145, 5 log dose): 2.08 µM
- CC50 ([18]; DU-145, 5 log dose, 48 h, read-out: LC50 (the source's name)): 4.88 µM
- activity at 10 µM [18]: 11.2%
- GI50 ([19]; BT-549): 2.08 µM
- IC (TGI) ([19]; BT-549, read-out: TGI): 7.43 µM
- activity at 10 µM [19]: -10.3%
- CC50 ([19]; BT-549, 5 log dose, 48 h, read-out: LC50 (the source's name)): 58.1 µM
